# According to ChEMBL document CHEMBL1909046, “DrugMatrix in vitro pharmacology data”:
# Assays:
# [1] = target: Aldo-keto reductase family 1 member B1 (Rattus norvegicus, UniProt P07943); experiment: biochemical; assay type: tissue-based, Lens of camera-type eye;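 note: inhibition of aldose reductase enzyme activity, measured with DL-glyceraldehyde as the substrate; in other assays of this panel Not Active means under 50% inhibition at 10 µM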
# [2] = target: T1, 5-hydroxytryptamine receptor 2C (Homo sapiens, UniProt P28335); experiment: DRUGMATRIX: Serotonin (5-Hydroxytryptamine) 5-HT2C radioligand binding (ligand: [3H] Mesulergine); assay type: cell membranes, CHO-K1, Membrane; conditions: Not Active = under 50% inhibition at 10 µM
# T1 sequence (P28335 whole entry): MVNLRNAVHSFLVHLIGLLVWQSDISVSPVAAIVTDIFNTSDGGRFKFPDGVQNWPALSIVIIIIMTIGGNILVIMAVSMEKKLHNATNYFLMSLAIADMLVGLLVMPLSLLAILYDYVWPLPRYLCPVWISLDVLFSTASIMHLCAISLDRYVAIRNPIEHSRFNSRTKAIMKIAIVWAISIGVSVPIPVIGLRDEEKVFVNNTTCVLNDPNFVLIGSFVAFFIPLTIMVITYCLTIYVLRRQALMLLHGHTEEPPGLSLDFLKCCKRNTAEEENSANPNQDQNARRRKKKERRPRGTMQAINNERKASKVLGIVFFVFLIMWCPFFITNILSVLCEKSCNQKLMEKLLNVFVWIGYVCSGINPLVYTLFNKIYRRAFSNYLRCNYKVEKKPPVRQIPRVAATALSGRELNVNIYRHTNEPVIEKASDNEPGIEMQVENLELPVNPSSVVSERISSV
# [3] = target: Sodium-dependent dopamine transporter (Homo sapiens, UniProt Q01959); experiment: DRUGMATRIX: Dopamine Transporter radioligand binding (ligand: [125I] RTI-55); assay type: cell membranes, CHO-K1, Membrane; conditions: cho-k1; Not Active = under 50% inhibition at 10 µM
# [4] = target: T2, Polyunsaturated fatty acid lipoxygenase ALOX15 (Oryctolagus cuniculus, UniProt P12530); experiment: biochemical; assay type: tissue-based, Reticulocytes; conditions: reticulocytes;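 note: inhibition of 15-lipoxygenase enzyme activity measured with linoleic acid as the substrate; in other assays of this panel Not Active means under 50% inhibition at 10 µM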
# T2 sequence (P12530 whole entry): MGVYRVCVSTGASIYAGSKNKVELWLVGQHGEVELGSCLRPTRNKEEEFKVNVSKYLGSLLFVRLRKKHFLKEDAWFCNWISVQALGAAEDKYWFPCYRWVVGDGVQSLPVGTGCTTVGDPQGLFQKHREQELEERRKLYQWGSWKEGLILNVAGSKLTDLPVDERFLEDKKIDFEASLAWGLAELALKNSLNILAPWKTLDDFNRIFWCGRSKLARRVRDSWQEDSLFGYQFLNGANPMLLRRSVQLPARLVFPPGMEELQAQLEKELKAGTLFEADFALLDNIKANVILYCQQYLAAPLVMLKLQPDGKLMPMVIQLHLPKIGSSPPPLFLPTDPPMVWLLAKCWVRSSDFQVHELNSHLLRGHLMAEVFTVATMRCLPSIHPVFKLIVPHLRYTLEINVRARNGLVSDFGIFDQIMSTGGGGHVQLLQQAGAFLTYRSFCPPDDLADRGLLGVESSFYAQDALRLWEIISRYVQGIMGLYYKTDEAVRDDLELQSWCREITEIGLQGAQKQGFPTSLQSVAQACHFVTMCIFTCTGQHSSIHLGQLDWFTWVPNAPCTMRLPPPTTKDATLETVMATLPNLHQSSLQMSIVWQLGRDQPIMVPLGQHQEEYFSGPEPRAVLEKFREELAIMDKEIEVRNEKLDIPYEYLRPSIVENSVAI
# [5] = target: Matrix metalloproteinase-9 (Homo sapiens, UniProt P14780); experiment: biochemical; assay type: cell-based;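 note: inhibition of isolated MMP-9 enzyme activity toward a synthetic peptide substrate, from the DrugMatrix protease screening panel; in other assays of this panel Not Active means under 50% inhibition at 10 µM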
# Cytochrome P450 2C9 = Cytochrome P450 2C9 (Homo sapiens, UniProt P11712); note: in other assays of this panel Not Active means under 50% inhibition at 10 µM
# Cytochrome P450 2C19 = Cytochrome P450 2C19 (Homo sapiens, UniProt P33261); note: in other assays of this panel Not Active means under 50% inhibition at 10 µM
# Androgen receptor = target: T3, Androgen receptor (Rattus norvegicus, UniProt P15207); note: in other assays of this panel Not Active means under 50% inhibition at 10 µM
# T3 sequence (P15207 whole entry): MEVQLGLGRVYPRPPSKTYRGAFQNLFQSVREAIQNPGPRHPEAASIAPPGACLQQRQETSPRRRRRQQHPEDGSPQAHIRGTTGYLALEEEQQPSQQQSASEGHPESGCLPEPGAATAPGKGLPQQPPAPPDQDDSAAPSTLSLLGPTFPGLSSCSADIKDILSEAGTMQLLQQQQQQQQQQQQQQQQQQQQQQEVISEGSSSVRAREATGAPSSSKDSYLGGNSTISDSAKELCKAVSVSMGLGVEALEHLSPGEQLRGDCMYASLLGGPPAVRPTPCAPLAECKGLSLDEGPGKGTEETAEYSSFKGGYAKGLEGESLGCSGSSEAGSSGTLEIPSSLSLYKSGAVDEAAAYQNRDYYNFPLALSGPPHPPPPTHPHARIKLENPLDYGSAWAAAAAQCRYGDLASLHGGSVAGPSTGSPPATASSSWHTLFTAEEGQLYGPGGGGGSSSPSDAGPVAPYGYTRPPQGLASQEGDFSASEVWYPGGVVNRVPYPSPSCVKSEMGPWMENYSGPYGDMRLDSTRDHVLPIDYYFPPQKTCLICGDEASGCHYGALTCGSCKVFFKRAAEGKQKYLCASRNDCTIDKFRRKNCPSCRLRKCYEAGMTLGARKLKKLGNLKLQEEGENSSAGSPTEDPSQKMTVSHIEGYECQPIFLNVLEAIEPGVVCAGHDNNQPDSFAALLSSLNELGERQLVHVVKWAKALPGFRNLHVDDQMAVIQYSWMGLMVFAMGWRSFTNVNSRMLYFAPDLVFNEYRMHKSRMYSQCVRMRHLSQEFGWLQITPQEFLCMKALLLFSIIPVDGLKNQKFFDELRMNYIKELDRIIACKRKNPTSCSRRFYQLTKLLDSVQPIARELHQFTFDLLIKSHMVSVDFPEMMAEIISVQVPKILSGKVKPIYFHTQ
# Cytochrome P450 3A4 = Cytochrome P450 3A4 (Homo sapiens, UniProt P08684); note: in other assays of this panel Not Active means under 50% inhibition at 10 µM
# Cytochrome P450 3A4, sequence (P08684 whole entry): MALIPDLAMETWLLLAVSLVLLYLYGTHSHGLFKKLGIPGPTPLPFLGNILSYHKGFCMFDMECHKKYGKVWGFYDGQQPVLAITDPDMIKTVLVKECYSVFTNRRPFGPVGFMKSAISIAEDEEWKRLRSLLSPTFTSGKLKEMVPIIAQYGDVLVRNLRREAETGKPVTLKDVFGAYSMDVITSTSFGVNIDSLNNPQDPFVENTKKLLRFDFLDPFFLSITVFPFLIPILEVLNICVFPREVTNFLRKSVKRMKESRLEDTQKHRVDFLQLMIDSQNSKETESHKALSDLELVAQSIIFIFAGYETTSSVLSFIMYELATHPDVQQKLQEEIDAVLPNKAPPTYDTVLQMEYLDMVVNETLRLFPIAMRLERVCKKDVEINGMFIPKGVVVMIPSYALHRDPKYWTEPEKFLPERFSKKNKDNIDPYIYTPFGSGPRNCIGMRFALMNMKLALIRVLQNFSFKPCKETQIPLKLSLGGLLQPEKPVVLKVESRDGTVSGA
# Cytochrome P450 2C9, sequence (P11712 whole entry): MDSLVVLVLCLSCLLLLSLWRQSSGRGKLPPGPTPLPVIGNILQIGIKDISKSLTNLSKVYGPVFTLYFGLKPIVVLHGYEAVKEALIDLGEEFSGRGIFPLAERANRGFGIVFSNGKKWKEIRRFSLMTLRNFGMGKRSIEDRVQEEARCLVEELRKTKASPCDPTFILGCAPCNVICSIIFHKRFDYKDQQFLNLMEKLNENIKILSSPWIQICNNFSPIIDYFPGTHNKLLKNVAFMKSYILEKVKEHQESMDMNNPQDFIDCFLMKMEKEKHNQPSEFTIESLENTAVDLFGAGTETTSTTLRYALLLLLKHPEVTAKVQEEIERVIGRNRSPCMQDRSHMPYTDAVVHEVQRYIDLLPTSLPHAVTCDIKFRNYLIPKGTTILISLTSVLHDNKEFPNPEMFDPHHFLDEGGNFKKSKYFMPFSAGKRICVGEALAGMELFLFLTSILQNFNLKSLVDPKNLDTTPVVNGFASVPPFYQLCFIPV
# Sodium-dependent dopamine transporter, sequence (Q01959 whole entry): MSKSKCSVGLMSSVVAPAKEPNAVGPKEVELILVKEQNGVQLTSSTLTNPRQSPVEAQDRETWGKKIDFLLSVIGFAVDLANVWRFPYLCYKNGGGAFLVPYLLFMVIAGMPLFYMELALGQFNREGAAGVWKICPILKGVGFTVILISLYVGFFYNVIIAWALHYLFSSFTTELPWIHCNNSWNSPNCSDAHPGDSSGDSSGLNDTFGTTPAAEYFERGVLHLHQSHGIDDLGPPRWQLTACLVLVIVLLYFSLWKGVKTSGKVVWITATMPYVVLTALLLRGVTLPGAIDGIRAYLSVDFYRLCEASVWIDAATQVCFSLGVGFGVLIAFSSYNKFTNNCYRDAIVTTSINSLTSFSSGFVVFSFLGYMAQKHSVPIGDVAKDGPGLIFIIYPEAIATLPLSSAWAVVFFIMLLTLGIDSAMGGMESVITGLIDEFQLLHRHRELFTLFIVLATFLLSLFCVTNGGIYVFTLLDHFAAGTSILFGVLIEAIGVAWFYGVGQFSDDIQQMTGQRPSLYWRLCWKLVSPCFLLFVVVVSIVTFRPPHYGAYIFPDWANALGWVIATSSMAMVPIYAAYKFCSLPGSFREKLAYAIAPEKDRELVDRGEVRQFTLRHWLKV
# Matrix metalloproteinase-9, sequence (P14780 whole entry): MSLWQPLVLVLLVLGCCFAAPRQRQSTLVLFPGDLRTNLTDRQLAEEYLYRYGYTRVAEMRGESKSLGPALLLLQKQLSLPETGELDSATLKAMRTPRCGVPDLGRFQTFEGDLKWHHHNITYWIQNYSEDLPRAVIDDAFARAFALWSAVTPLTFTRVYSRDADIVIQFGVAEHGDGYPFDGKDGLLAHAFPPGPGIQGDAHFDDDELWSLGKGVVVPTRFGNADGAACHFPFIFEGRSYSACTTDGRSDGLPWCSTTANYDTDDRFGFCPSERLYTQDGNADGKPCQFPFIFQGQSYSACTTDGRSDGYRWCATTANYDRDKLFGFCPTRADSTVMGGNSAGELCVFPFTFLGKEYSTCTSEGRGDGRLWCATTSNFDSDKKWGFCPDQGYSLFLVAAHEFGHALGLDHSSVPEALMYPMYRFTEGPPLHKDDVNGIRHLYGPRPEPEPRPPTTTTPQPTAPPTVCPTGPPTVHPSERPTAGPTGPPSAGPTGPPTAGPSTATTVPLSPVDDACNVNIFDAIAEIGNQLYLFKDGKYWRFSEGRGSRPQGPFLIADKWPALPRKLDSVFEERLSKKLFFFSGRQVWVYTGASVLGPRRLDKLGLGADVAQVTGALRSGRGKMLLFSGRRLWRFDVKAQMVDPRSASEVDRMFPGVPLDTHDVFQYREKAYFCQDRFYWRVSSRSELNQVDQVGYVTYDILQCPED
# Cytochrome P450 2C19, sequence (P33261 whole entry): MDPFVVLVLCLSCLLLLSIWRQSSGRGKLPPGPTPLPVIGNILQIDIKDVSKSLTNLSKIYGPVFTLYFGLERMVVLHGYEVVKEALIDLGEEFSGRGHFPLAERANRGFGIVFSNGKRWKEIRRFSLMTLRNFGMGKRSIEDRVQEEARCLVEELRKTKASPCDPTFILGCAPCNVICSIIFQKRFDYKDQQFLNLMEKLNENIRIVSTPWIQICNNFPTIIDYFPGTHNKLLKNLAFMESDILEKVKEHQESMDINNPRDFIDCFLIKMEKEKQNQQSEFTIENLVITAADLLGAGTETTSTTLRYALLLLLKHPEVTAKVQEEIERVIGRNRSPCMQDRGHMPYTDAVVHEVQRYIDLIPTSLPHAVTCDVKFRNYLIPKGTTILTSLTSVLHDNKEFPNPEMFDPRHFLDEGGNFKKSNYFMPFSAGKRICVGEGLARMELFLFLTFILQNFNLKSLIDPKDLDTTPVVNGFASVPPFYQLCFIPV
Compound,IC50 [1],IC50 ([2]; cho-k1),IC50 [3],IC50 [4],IC50 [5],IC50 (Cytochrome P450 2C9) [µM],IC50 (Cytochrome P450 2C19) [µM],IC50 (Androgen receptor),IC50 ([2]; read-out: IC50) [µM],Ki ([2]; read-out: Ki) [µM],IC50 (Cytochrome P450 3A4) [µM],Ki [1],Ki ([2]; cho-k1),Ki [3],Ki [4],Ki [5],Ki (Androgen receptor)
COc1cc(C(=O)NS(=O)(=O)c2ccccc2C)ccc1Cc1cn(C)c2ccc(NC(=O)OC3CCCC3)cc12 [ZAFIRLUKAST],Not Active,Not Active,Not Active,Not Active,Not Active,2.26,,,,,,,,,,,
C=C(C)[C@H]1Cc2c(ccc3c2O[C@@H]2COc4cc(OC)c(OC)cc4[C@@H]2C3=O)O1 [ROTENONE],Not Active,Not Active,Not Active,Not Active,Not Active,,3.65,Not Active,,,,,,,,,
COc1cc(N)nc2[nH]c(-c3ccc(F)cc3)c(-c3ccncc3)c12,Not Active,,Not Active,Not Active,Not Active,1,,Not Active,1.24,0.648,1,,,,,,
THIMEROSAL,Not Active,Not Active,Not Active,Not Active,Not Active,,,Not Active,,,,Not Active,Not Active,Not Active,Not Active,Not Active,Not Active
C[C@@H]1C[C@H]2[C@@H]3CCC4=CC(=O)C=C[C@]4(C)C3=CC[C@]2(C)[C@H]1C(=O)CN1CCN(c2cc(N3CCCC3)nc(N3CCCC3)n2)CC1 [TIRILAZAD],Not Active,,Not Active,Not Active,Not Active,,,Not Active,0.718,0.376,,,,,,,
CN[C@@H]1[C@H](O)[C@H](NC)[C@H]2O[C@@]3(O)C(=O)C[C@@H](C)O[C@H]3O[C@@H]2[C@H]1O [SPECTINOMYCIN],Not Active,Not Active,Not Active,Not Active,Not Active,,,Not Active,,,,,,,,,
CO[C@H]1C[C@@H]2CC[C@@H](C)[C@@](O)(O2)C(=O)C(=O)N2CCCC[C@H]2C(=O)O[C@H]([C@H](C)C[C@@H]2CC[C@@H](O)[C@H](OC)C2)CC(=O)[C@H](C)/C=C(\C)[C@@H](O)[C@@H](OC)C(=O)[C@H](C)C[C@H](C)/C=C/C=C/C=C/1C [SIROLIMUS],Not Active,Not Active,Not Active,Not Active,Not Active,2,4,Not Active,,,2,,,,,,
